Experimental data reported in US20160115196A1, “SELF-ASSEMBLED MICRO-AND NANOSTRUCTURES” (NORTHWESTERN UNIVERSITY, priority 2013, published 2016).
Where no end group is shown, it is not given here. [ ]: non-standard residue; d: D form. Dopa = N[C@@H](Cc1ccc(O)c(O)c1)C(=O)O

Key:
[1] = AFM force mapping adhesion measurements with colloidal probe (Embodiment 2); format: physicochemical; details: for mean adhesion force from force map histogram: tip velocity 1000 nm/s, compressive force 20 nN
Experimental: In an alternative embodiment, AFM analysis was performed using an Asylum MFP-1D AFM instrument (Asylum Research, Santa Barbara, Calif., USA).
The AFM measurment was performed by emploting force mapping while simultaneously providing nanoscale topographical and mechanical information about the hydrogel. Force mapping involves generating individual force curves at discrete points on a material, which are then used to calculate stiffness and height values.
(§1) After overnight incubation, 10 μL of each sample were deposited on a glass slide and dried at room temperature. Force measurements of the samples were conducted using a SiO2 colloidal probe (tip velocity 1000 nm/s, compressive force 20 nN). To investigate the glass surface area morphology after peeling, 30 μL of freshly prepared Fmoc-DOPA-DOPA-Lys solutions (12.5 mg/mL, prepared in DMSO or ethanol as described above) were deposited between two microscope glass slides. This construct was incubated overnight at room temperature under 100 mg weight Finally, the upper glass slide was peeled off and the contact area of either slide was imaged using an Ultrasharp AFM probe (NSC21/Ti-Pt, MikroMasch) operated in tapping mode.

[2] = Macroscopic adhesion of two glass slides and peeling; format: physicochemical; details: prepared in ethanol or DMSO
Experimental: as §1

[3] = Silver reduction / silver deposition assay; details: silver nitrate added to pre-formed assemblies; TEM, HR-SEM or E-SEM
Experimental: Silver reduction assay was performed with pre-prepared Fmoc-DOPA-DOPA hydrogels at a concentration of 5 mg/mL (8.35 mM). 50 μL of 13.2 mM silver nitrate were added to 500 μL hydrogel aliquots by gentle pipetting, resulting in 1.2 mM final concentration of silver nitrate. This solution was incubated at room temperature for several days. At different time points, 10 μL aliquots were taken for TEM analysis and negative staining was not applied. To examine silver reduction using UV-vis spectroscopy, silver nitrate was added to a 5 mg/mL hydrogel pre-prepared as described above and 150 μL aliquots of Fmoc-DOPA-DOPA hydrogel with or without silver nitrate were pipetted into a 96-well UV-Star UV transparent plate (Greiner BioOne, Frickenhausen, Germany) Spectra were collected after 5 days using a Biotek Synergy HT plate reader over the range of 300-700 nm and compared to blank samples of silver nitrate only, or of the peptide only.
Peptide stock solution was diluted to a final concentration of 5 mg/ml in double distilled water. Then metal salt (AgNO3) was added to the sample and the samples were analyzed by TEM or HR-SEM. AgNO3 concentration was determined according to the final catechol concentration in the peptide, with a constant ratio of [AgNO3]/[Catechol]=0.0723.
Silver deposition was done by preparing 15 mM peptide solutions and removing residual peptide monomers. This was done by centrifugation at 12,000 RPM for 15 min, discarding the supernatant and resuspention in ultra-pure water. This procedure was repeated once more. Samples for electron microscopy were taken as control and the solution was centrifuged at 12,000 RPM for 15 min and resuspended in an aqueous solution of 2.17 mM AgNO3 for 15 min Finally, the solution was centrifuged at 9000 RPM for 10 min and resuspended in water. Samples for electron microscopy were taken again.

[4] = Thermal perturbation of assemblies (temperature-dependent CD, FTIR, TEM); format: physicochemical; details: 0.15 mM in water, stepwise 18° C. to 90° C. and back
Experimental: CD spectra were collected as described above except that the spectra were obtained throughout temperature variation done in a stepwise fashion up and then down. […] (in the following steps: 25° C., 37° C., 50° C., 70° C., 90° C., 70° C., 50° C., 37° C., 25° C.). The sample was allowed to equilibrate for 10 min and the temperature was monitored by a thermocouple in the cuvette holder block. At the end of the measurments, the cuvette content was sampled for TEM and FTIR analysis as described above. As control, TEM and FTIR samples were taken from an aliquot of the same solution which was not subjected to temperature variations.

[5] = Rheological measurements of in situ-formed hydrogel; format: physicochemical; details: 5 mg/mL
Experimental: Rheological measurements for in situ-formed Fmoc-DOPA-DOPA hydrogel were performed using an AR-G2 rheometer (TA Instruments, New Castle, Del., USA). Time-sweep oscillatory tests in 20 mm parallel plate geometry were conducted at 0.7% strain and 1 Hz frequency on 200 μL of fresh solution (resulting in a gap size of about 0.6 mm), 1 min after its preparation. In order to determine the linear viscoelastic region oscillatory strain (0.01-100%) and frequency sweep (0.01-100 Hz) tests were conducted 45 min after diluting the stock solution with Milli-Q water. All rheology tests were done in triplicates and averaged.

Fmoc-DOPA-DOPA-Lys
adhesion force (force map) ([1]; 1.25 wt% (12.5 mg/mL) prepared in 12.5% DMSO and water): > 300 nN | adhesion force (force map) ([1]; 1.25 wt% (12.5 mg/mL) prepared in 12.5% ethanol and water): more than 214 nN | macroscopic adhesive properties [2]: capable of gluing together two glass slides

3,4-dihydroxyphenyl-L-alanine-(3,4-dihydroxyphenyl-L-alanine) [DOPA-DOPA]
reduction of ionic silver / silver deposition on assemblies [3]: formation of silver particles

O=C(N[C@@H](Cc1ccc(O)c(O)c1)C(=O)O)OCC1c2ccccc2-c2ccccc21 [Fmoc-DOPA]
mean adhesion force from force map histogram ([1]; 1 mg/ml in 1% ethanol, one day of assembly): 31±10.6 nN

D[Dopa]NK[Dopa]
stability of the ultrastructure to elevated temperature [4]: ultrastructure is impaired by elevated temperatures | reduction of ionic silver / silver deposition on assemblies [3]: possess the ability to reduce ionic silver

Fmoc-DOPA-DOPA
mean adhesion force from force map histogram ([1]; 5 mg/ml in 5% ethanol): 36±11 nN | storage modulus at 25° C. or 37° C. relative to hydrogels formed at 4° C. [5]: approximately 40 fold | storage modulus (G′) versus loss modulus (G″) in the linear region ([5]; 25° C.): more than one order of magnitude larger than the loss modulus | reduction of ionic silver / silver deposition on assemblies [3]: seamless coating of the peptide assemblies was clearly observed
